{
  "source": "patent US20250020635A1",
  "about": "“ASSAY METHODS AND USES THEREOF FOR SCREENING ALZHEIMER'S DISEASE TREATMENT COMPOUNDS” (priority 2023, published 2025)",
  "key": {"[1]": {"target": "T1, PLCγ2-HiBit (Homo sapiens, UniProt P16885)", "T1 construct": "expressed in transfected cells; host or cells: HMC3 cells", "T1 sequence (P16885 1-1265)": "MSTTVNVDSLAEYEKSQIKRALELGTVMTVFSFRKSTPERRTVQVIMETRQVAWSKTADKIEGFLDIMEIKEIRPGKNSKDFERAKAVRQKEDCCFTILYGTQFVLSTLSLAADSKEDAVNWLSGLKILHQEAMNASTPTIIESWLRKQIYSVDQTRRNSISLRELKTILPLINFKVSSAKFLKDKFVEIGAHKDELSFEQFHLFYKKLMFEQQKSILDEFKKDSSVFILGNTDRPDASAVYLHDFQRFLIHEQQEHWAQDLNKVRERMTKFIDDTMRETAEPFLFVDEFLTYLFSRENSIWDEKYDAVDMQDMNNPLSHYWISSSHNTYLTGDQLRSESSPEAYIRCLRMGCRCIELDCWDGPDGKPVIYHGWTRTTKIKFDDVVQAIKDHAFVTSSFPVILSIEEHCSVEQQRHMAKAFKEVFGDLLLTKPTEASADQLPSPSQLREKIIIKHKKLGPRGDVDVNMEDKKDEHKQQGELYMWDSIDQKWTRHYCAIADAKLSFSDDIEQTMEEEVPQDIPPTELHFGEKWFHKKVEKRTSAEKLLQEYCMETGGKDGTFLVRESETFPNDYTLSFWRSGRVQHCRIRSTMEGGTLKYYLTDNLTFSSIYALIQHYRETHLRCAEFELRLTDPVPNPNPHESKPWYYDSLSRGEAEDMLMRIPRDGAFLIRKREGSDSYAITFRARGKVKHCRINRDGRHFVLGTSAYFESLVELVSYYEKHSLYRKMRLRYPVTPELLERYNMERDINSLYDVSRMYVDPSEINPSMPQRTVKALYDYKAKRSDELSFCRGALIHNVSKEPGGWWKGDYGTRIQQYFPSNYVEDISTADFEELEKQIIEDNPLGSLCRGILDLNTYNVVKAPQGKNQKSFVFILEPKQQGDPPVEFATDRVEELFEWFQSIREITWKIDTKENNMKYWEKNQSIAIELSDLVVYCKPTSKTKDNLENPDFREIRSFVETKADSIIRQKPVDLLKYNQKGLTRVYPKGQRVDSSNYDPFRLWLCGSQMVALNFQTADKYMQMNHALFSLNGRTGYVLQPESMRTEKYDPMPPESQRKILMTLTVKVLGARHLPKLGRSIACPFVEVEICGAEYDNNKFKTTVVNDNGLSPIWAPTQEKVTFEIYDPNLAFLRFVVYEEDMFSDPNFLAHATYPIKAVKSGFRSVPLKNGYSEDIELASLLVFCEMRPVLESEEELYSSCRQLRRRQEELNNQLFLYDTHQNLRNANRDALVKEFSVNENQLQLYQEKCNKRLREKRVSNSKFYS", "experiment": "Cellular thermal shift assay (SplitLuc CETSA), PLCγ2-HiBit in HMC3 cells", "format": "cell-based", "from_the_text": "These compounds have been evaluated using a wide variety of assay classes namely target engagement utilizing cellular thermal shift assay (CETSA),^34 affinity selection mass spectrometry (ASMS),^35 biochemical activity employing the fluorogenic probe XY-69,^36 and cellular activity testing for phagocytosis. Cellular Thermal Shift Assays (CETSA) assess cellular target engagement by quantifying changes in protein thermal stability upon ligand binding to endogenous proteins in intact cells.^34 For SAR studies, a split Nano Luciferase (SplitLuc CETSA) version of the assay was utilized to provide sufficient throughput.^37,38 HMC3 cells were stably transfected with PLCγ2-HiBit to enable protein expression in a physiologically relevant cellular context. The thermal stability of this HiBit-labeled protein in intact cells was measured in the following two formats. In the initial screen, using 96-well plates, cells were treated with FBS analogs at a single concentration (100 μM) at 37° C. for 60 min and then exposed to a 3-minute isothermal heating step at 45.9° C. (experimentally determined Tm of PLCγ2-HiBit). Luminescence detection was then conducted with the Nano-Glo HiBit Lytic detection kit (Promega, Cat. N3040).^38 Compound treatment was performed in triplicate, and raw signals were normalized to the mean of the controls (in the same plate) as % of control. When the difference in compound-treated cells >control mean+3SD, the compound was considered positive and selected for further testing with dose-response CETSA. In the dose response CETSA, cells were treated with decreasing concentrations from 100 μM with 1:3 serial dilutions to generate an 8-point curve. An AC50 was calculated with the % of control data using a four-parameter logistic curve regression model, and the percent luminescence remaining at the highest concentration is also reported for the compounds when the difference from the DMSO control is greater than 3× the standard deviation (SD). Otherwise, an AC50 was not calculated."}, "[2]": {"tested_on": "HiBit only", "experiment": "Cellular thermal shift assay (CETSA), HiBit only control", "format": "cell-based, human"}, "[3]": {"tested_on": "HMC3 cells", "experiment": "Microglial phagocytosis/cell health high-content assay, HMC3 cells", "format": "cell-based", "settings": "for EC50: read-out: stimulation of phagocytosis EC50", "protocol": "(§1) The assay introduced here is a simplified cellular imaging assay without any fixation and washing steps, while producing multiparameter measurements with high capacity using a 384-well plate format. The assay procedures include plating cells on day 1, incubating cell plates overnight before treating cells on day 2, adding pHrodo™-myelin/membrane debris to cell plates on day 3, and 20 hr later, staining cell nuclei with Hoechst-33342 for 30 min before performing high-content imaging on day 4. Three selected parameters are measured from cells: 1) mean total fluorescence intensity per cell of pHrodo™-myelin/membrane debris in phagocytosis vesicles to quantify phagocytosis; 2) cell counts per well to quantify treatment effects on proliferation and cell death; and 3) average nuclear intensity to quantify treatment-induced nuclear changes such as in apoptosis. The assay has been used on HMC3 cells (an immortalized human microglial cell line), BV2 cells (an immortalized mouse microglial cell line), and primary microglia isolated from mouse brains. For initial assay attempts, we recommend using HMC3 cells available from the ATCC.\n(§2) All collected raw data are normalized to the untreated control with following formula: % of control=100×(X−Min)/(Max−Min). Factors in the formula are: X is raw data from a treated well, Max is an average measurement from pHrodo™-myelin seeded but untreated wells, and Min is an average measurement from no pHrodo™-myelin untreated wells. Normalized data are used for curve fitting that is done with the variable slope (four parameters) using the Prism software.\n(§3) To ensure that the measurements reflect the steady state of compound treatment effects and cell health, the assay was set with a total compound treatment time of 48 hr, including pHrodo™-myelin/membrane debris seeding performed 20-24 hr after compound addition. […] Among many available quantitative measurements from the image analysis, we selected three parameters for the assay:\n(§4) 1) The mean total intensity of phagocytosis vesicles/cell—to measure phagocytosis. There are multiple parameters generated from the image analysis, including phagocytosis vesicle area, number, and various fluorescence intensity measurements. Comparing these parameters, the total fluorescence intensity of vesicles/cell is the most sensitive one and was chosen for quantifying phagocytosis.\n(§5) 2) The total cell counts—to measure overall cell viability, which is affected by proliferation and cell death. We chose to take 4 images/well (with the 10× objective lens) that cover about 50% of the total area of a well in a 384-well plate to represent cell count of the well.\n(§6) 3) The average nuclear intensity—to measure drug-induced apoptosis, with high signal indicating nuclear condescension (a sign of early apoptosis) and low signal indicating DNA degradation (a sign of later apoptosis, when activated caspases digest DNA).\n(§7) A phenotypic high-content imaging assay with simultaneous measurements of phagocytosis, cell number, and nuclear intensity was used to assess both cellular pharmacology and cell health. Model cell lines BV2 (immortalized mouse microglia, a gift from Dr. Michelle Block's laboratory at IUSM) and HMC3 (immortalized human microglia, obtained from ATCC, CRL-3304) were used to provide adequate throughput. Cells were cultured in DMEM GlutaMax media (ThermoFisher) containing 10% FBS and Pen-Strep in a 37° C. 5% CO2 incubator, plated in Corning Falcon 384 well Optilux Black and clear bottom plates: 400 cells/45 μl/well (BV2 cells), 600 cells/45 μl/well (HMC3 cells) and 2000 cell/45 μl/well (primary cells), and treated with 10× serially diluted compounds (60 μM-3 nM) for 48 hrs at 37° C. […]"}, "[4]": {"tested_on": "BV2 cells", "experiment": "Microglial phagocytosis/cell health high-content assay, BV2 cells", "format": "cell-based", "protocol": "as §1, §2, §3, §4, §5, §6, §7"}, "[5]": {"settings": "60 μM, 48 hrs, compared to control"}},
  "note": "“Also recorded” adds a separate entry of the source. Read-outs that look alike come from different tables or passages of the source.",
  "data": [
    {"compound": "O=S(=O)(Nc1cccc(C(F)(F)F)c1)c1ccc(Cl)cc1Cl", "note": "[Compound 9]", "values": [
      {"measurement": "PLCγ2-HiBit %, percent luminescence at highest dose compared to control (DMSO)", "setting": "[1]; 100 μM", "result": 32, "unit": "%"},
      {"measurement": "PLCy2-HiBit % @100", "setting": "[1]; Table 1, @100", "result": 32, "unit": "%"},
      {"measurement": "AC50", "setting": "[1]; Table 1, CETSA dose response, read-out: AC50", "result": 71000, "unit": "nM"},
      {"measurement": "AC50", "setting": "[1]; Table 5, 8-point dose response from 100 μM, HMC3 cells, 45.9° C., read-out: AC50, concentration that induced a half-maximum loss of luminesce compared to control", "result": 71000, "unit": "nM"},
      {"measurement": "HiBit only %, percent luminescence at highest dose with HiBit only compared to control (DMSO)", "setting": "[2]; 100 μM", "result": 38, "unit": "%"},
      {"measurement": "HiBit only % @100 μM", "setting": "[2]; Table 1, @100 μM", "result": 38, "unit": "%"},
      {"measurement": "Ave. % Cell Count @ 60 uM HMC3 cells", "setting": "[3]; [5]", "result": 16, "unit": "%"},
      {"measurement": "Ave. % Phagocytosis @ 60 uM HMC3 cells", "setting": "[3]; [5]", "result": 281, "unit": "%"},
      {"measurement": "Ave. % Cell Count @ 60 uM BV2 cells", "setting": "[4]; [5]", "result": 9, "unit": "%"},
      {"measurement": "Ave. % Phagocytosis @ 60 uM BV2 cells", "setting": "[4]; [5]", "result": 581, "unit": "%"},
      {"measurement": "phagocytosis increase against cell count decline", "setting": "[4]; HMC3 and BV2 cells (Table 6, FIGS. 21, 22)", "result": "the increase was paired with a sharp cell count decline"}
    ]},
    {"compound": "CN1CCN(CCOc2cc(OC3CCOCC3)c3c(Nc4c(Cl)ccc5c4OCO5)ncnc3c2)CC1", "note": "[Saracatinib, reference compound]", "values": [
      {"measurement": "concentrations showing cytotoxicity", "setting": "[3]; HMC3 cells, 48 hours treatment", "result": "> 10", "unit": "µM"},
      {"measurement": "EC50", "setting": "[3]; HMC3 cells, 48 hours treatment", "result": 182, "unit": "nM"},
      {"measurement": "EC50", "setting": "[3]; Homo sapiens, HMC3, 48 h, HMC3 cells, 48 hours treatment", "result": "< 200", "unit": "nM"},
      {"measurement": "concentrations showing cell count decreases", "setting": "[4]; BV2 cells, 48 hours treatment", "result": "> 1", "unit": "µM"},
      {"measurement": "IC50", "setting": "[4]; Mus musculus, BV-2, BV2 cells, 48 hours treatment, read-out: cell count decrease IC50", "result": 833, "unit": "nM"},
      {"measurement": "EC50", "setting": "[4]; Mus musculus, BV-2, BV2 cells, 48 hours treatment, read-out: increased phagocytosis EC50", "result": 266, "unit": "nM"}
    ]},
    {"compound": "Lipopolysaccharides [LPS, reference compound]", "values": [
      {"measurement": "response (phagocytosis, cell count, nuclear intensity)", "setting": "[3]; HMC3 cells, 48 hr", "result": "did not respond to LPS treatment"},
      {"measurement": "changes in nuclear intensity", "setting": "[4]; BV2 cells, 48 hr", "result": "no nuclear intensity changes up to 10 μg/ml LPS; also recorded: no changes in nuclear intensity"},
      {"measurement": "inhibition of cell count IC50", "setting": "[4]; BV2 cells, 48 hr", "result": 0.122, "unit": "µg/mL"},
      {"measurement": "stimulation of phagocytosis EC50", "setting": "[4]; BV2 cells, 48 hr", "result": 0.255, "unit": "µg/mL"}
    ]}
  ]
}
